Where a name gives a salt, the structure may show the parent alone.
Legend:
serum components [1] = experiment: Non-specific binding of Rhodamine-Thyroxine to serum components (Example 17); conditions: Rox-Thyroxine 1.5 nM, serum 1:500, PBS with 10% 2-propanol, sodium benzoate in different concentrations
Description: (§1) The serum was diluted 1:500 in PBS/10% 2-propanol The buffer and stock solutions, as well as the measurement methodology described in Example 5 were used.
(§2) • Rox-Thyroxine, 1.5 nM • Anti-Thyroxine (1:300) • PBS with 10% 2-propanol • Serum 1:500 • Sodium benzoate in different concentrations

serum components [2] = experiment: Initial non-specific binding between F-thyroxine and serum components (Example 6); conditions: experiments 6-3 through 6-7: serum, increasing sodium benzoate up to 1.0 M; reduced from 195
Description: (§3) The buffer and stock solutions described in Example 1 and the measurement methodology described in Example 2 were used.
(§4) • Fluorescein-Thyroxine (1 nM) • Anti-Thyroxine (1:300 dilution) • PBS with 10% 2-propanol • Benzoate in different concentrations • At t=0 s antibody was pipetted into the cuvette. • A 3 ml cuvette was used, the total volume in the cuvette was 2 ml. A small magnetic stirrer was used for mixing
(§5) In example 6, the reactions between F-Thyroxine and Anti-Thyroxine, which were carried out in the presence of serum under different reaction conditions, are compared (FIG. 4). There are seven different amounts of sodium benzoate, between 0 and 1.0 Molar in the cuvette. The reaction was performed in a phosphate buffered saline buffer containing 10% 2-propanol. The table in FIG. 4 lists the two important parameters.

anti-thyroxine [3] = experiment: Rate of the reaction between F-thyroxine and anti-thyroxine, with and without serum (Example 6); type: binding; conditions: experiments 6-3 through 6-7: serum, increasing sodium benzoate up to 1.0 M
Description: as §3, §4, §5

human sera = experiment: Effect of additive on non-specific binding of F-thyroxine in human sera (Example 4); conditions: Buffer 2 (1.0 M sodium benzoate), 50 μl human sera
Description: (§6) With reference to FIG. 2, experiments were performed to determine the effects of an additive on specific and non-specific binding. The additive used in the present example was sodium benzoate. The materials described in Example 1 and the measurement methodology described in Example 2 were used. In particular, 50 μl of human sera was added to 3000 μl of Buffer 2 or PBS at pH 7.5 (no additive control) and thoroughly mixed by pipetting for 1 to 10 seconds. To this was added 0 μl of unlabeled thyroxine and 0 μl, 20 μl or 50 μl of anti-sera stock solution. The mixture was thoroughly mixed by pipetting for 1 to 10 seconds. Then, 5 μl of the fluorescein-labeled thyroxine stock solution was added. This was followed by mixing for 1 to 10 seconds by pipetting. Then, d(V−H)/dt measurements were made versus time for between 10 and 600 seconds. This protocol was followed for Experiments 6-9 in Table 2.

anti-thyroxine [4] = experiment: Velocity of the reaction between F-thyroxine and anti-thyroxine in the absence of non-specific binding components (Example 7); conditions: sodium benzoate increased to 1.0 molar; no serum or BSA; PBS with 5% 2-propanol, F-thyroxine 1 nM
Description: as §3
• Fluorescein-thyroxine, 1 nM • Anti-Thyroxine (1:300) • PBS with 5% 2-propanol • Sodium Benzoate in different concentrations

anti-thyroxine [5] = experiment: Velocity of the reaction between Rhodamine-Thyroxine and anti-thyroxine in serum (Example 17); type: binding; conditions: Rox-Thyroxine 1.5 nM, serum 1:500, PBS with 10% 2-propanol, increasing sodium benzoate
Description: as §1, §2

anti-thyroxine [6] = experiment: Velocity of the reaction between F-thyroxine and anti-thyroxine in the presence of BSA (Examples 8-16); type: binding; conditions: BSA 0.1 μM, increasing additive concentrations
Description: as §3
• Fluorescein-Thyroxine, 1 nM • Anti-Thyroxine (1:300) • PBS with 5% 2-propanol • BSA 0.1 μM • Sodium benzoate in different concentrations
• Fluorescein-Thyroxine, 1 nM • Anti-Thyroxine (1:300) • PBS with 5% 2-propanol • BSA 0.1 μM • Sodium p-toluene sulfonate in different concentrations
• Fluorescein-Thyroxine, 1 nM • Anti-Thyroxine (1:300) • PBS with 4.75% 2-propanol • BSA 0.1 μM • Potassium benzoate in different concentrations
• Fluorescein-Thyroxine, 1 nM • Anti-Thyroxine (1:300) • PBS with 4.75% 2-propanol • BSA 0.1 μM • Sodium chloroacetate in different concentrations
• Fluorescein-Thyroxine, 1 nM • Anti-Thyroxine (1:300) • PBS with 4.75% 2-propanol • BSA 0.1 μM • Sodium dichloroacetate in different concentrations
[…]. The buffer and stock solutions described in Example 1 and the measurement methodology described in Example 2 were used.
• Fluorescein-Thyroxine, 1.5 nM • Anti-Thyroxine (1:300) • PBS with 4.75% 2-propanol • BSA 0.1 μM • Sodium Salicylate in different concentrations
• Fluorescein-Thyroxine, 1.5 nM • Anti-Thyroxine (1:300) • PBS with 4.75% 2-propanol • BSA 0.1 μM • N-Hydroxysuccinimide in different concentrations
• Fluorescein-Thyroxine, 1.5 nM • Anti-Thyroxine (1:300) • PBS with 4.75% 2-propanol • BSA 0.1 μM • Sodium Chloride in different concentrations

anti-thyroxine sera = experiment: Effect of additive on specific binding of F-thyroxine to anti-thyroxine in the presence of human sera (Example 4); conditions: Buffer 2 (1.0 M sodium benzoate), 50 μl human sera, 20 or 50 μl anti-sera
Description: as §6

anti-thyroxine [7] = experiment: Kinetic curve, rhodamine-labeled thyroxine/anti-thyroxine system in 0.5 M sodium benzoate with 5% isopropanol (Example 5); type: binding
Description: The protocol used is described below. The additive was sodium benzoate combined with an organic solvent (5% isopropanol). • 1. Use clean glassware, washed with isopropanol. • 2. Make a 0.5 M solution of sodium benzoate. • 3. Make a solution of 5% isopropanol in 0.5 M sodium benzoate (i.e., 2.5 ml 2-propanol in 47.5 mL 0.5 M aqueous sodium benzoate). This will be named BUFFER. • 4. […] 600 μl Buffer added to 1 mL curvette. The absorbance spectrum is measured using a UV-VIS spectrophotometer, 400 nm to 800 nm. This spectrum is used to define the absorbance of the background as zero and to control that it is actually zero. • 6. […] Measure the absorbance UV-VIS, 400 nm to 800 nm. […] Using a rotating polarometer with a 75 watt Xenon short-arc lamp. The rotating polarizer has three channels: Polarization (P), Total Intensity (V+H), and V−H. • 8. […] Measure P, V+H and V−H after short mixing and 30 second equilibration. […] Add 10 μl. Antibody solution (anti-thyroxine in PBS, dilution unknown, probably 5 mg in 1000 μl PBS and further diluted 1:10 in PBS). New volume is 3017 μl. Measure P, V+H and V−H after short mixing.

[8] = system: polyclonal anti-thyroxine sera; experiment: Fluorescence polarization kinetic measurement, F-thyroxine/anti-thyroxine system (Example 3); type: binding; conditions: Experiment 5: unlabeled thyroxine 0-20 μl, antiserum 20 μl, Buffer 1 (0.5 M sodium benzoate)
Description: An initial stock solution of anti-thyroxine sera was prepared. In particular, 1 ml of polyclonal anti-thyroxine sera containing 10 mg/ml IgG (Sigma) was diluted 1:5 in PBS buffer, pH 7.5. The final concentration of IgG in the stock solution was about 2 mg/ml.
An initial stock solution of fluorescein-labeled analyte (F-thyroxine) was prepared. Fluorescein-labeled thyroxine at 1248 g/mol in a lyophilized form was obtained from emp Biotech GmbH. First, 5 mg (4×10^−6 moles) of F-thyroxine was diluted to 10 ml in PBS to get a 4.1×10^−4 M solution of F-thyroxine. This solution was then further diluted 100-fold in PBS. The final concentration of F-thyroxine in the stock solution was about 4.1×10^−6 M.
The following is a protocol useful for performing a fluorescein polarization assay of the present invention. All steps are performed at ambient temperature. […] Pipette the mixture formed in step 5 up and down for 1 to 10 seconds and begin measuring polarization (P), Polarized Fluorescence Intensity Difference (V−H) or quenching (V+H total intensity) versus time for between 10 and 7200 seconds after end of mixing in a direct readout polarometer or between 0.1 and 7200 seconds after end of mixing with a stopped-flow polarometer. • 7. […] Against a standard curve, an unknown amount of thyroxine can be measured by comparison of initial rate measurement (speed of reaction) of unknown with the standard curve. […]

[9] = PBS with 5% 2-propanol, F-thyroxine 1 nM
[10] = PBS with 4.75% 2-propanol, F-thyroxine 1 nM
[11] = PBS with 4.75% 2-propanol, F-thyroxine 1.5 nM

O=C([O-])c1ccccc1.[Na+] [sodium benzoate]
non-specific binding due to the presence of serum components (serum components [1]): substantially reduced
polarization value before the addition of antibody (t=0) (serum components [2]): 100 mP
reaction rate relative to its value at zero additive (anti-thyroxine [3]): about 30%
rate of change of P at t=5 s (anti-thyroxine [3]; PBS with 10% 2-propanol): 3.2 mP/s
effect on non-specific binding (human sera): inhibits non-specific binding
reaction rate between F-thyroxine and antibody (anti-thyroxine [4]): slowed dramatically
rate of the reaction (anti-thyroxine [5]): substantially slowed
rate of the antibody reaction (anti-thyroxine [6]; [9]): substantially slowed
effect on specific binding (anti-thyroxine sera): does not inhibit specific binding

O=C([O-])CCl.[Na+] [sodium chloroacetate]
rate of the antibody reaction (anti-thyroxine [6]; [10]): substantially slowed

Cc1ccc(S(=O)(=O)O)cc1.[Na] [sodium p-tolulene sulfonate, sodium p-toluene sulfonate]
rate of the antibody reaction (anti-thyroxine [6]; [9]): substantially slowed

O=C([O-])c1ccccc1.[K+] [potassium benzoate]
rate of the antibody reaction (anti-thyroxine [6]; [10]): substantially slowed

[Cl-].[Na+] [sodium chloride]
rate of the antibody reaction (anti-thyroxine [6]; [11]): not substantially slowed

N=C(N)N [guanidine hydrochloride]
rate of the antibody reaction (anti-thyroxine [6]; [9]): substantially slowed

5-carboxy-X-rhodamine-thyroxine [ROX-T4]
values of P, V−H and V+H over the 600 second time course (anti-thyroxine [7]; 0.5 M sodium benzoate, 5% isopropanol): increase
V − H (anti-thyroxine [7]; 10 s after antibody): 660
V − H (anti-thyroxine [7]; 13 s after antibody): 860
V − H (anti-thyroxine [7]; 18 s after antibody): 936
V − H (anti-thyroxine [7]; 20 s after antibody): 1006
V − H (anti-thyroxine [7]; 26 s after antibody): 1130
V − H (anti-thyroxine [7]; 30 s after antibody): 1175
V − H (anti-thyroxine [7]; 33 s after antibody): 1200
V − H (anti-thyroxine [7]; 44 s after antibody): 1259
V − H (anti-thyroxine [7]; 49 s after antibody): 1280
V − H (anti-thyroxine [7]; 53 s after antibody): 1290
P (mP) (anti-thyroxine [7]; 62 s after antibody): 392 mP
P (mP) (anti-thyroxine [7]; 70 s after antibody): 395 mP
V − H (anti-thyroxine [7]; 78 s after antibody): 1345
V + H (anti-thyroxine [7]; 83 s after antibody): 3375
P (mP) (anti-thyroxine [7]; 95 s after antibody): 397 mP
P (mP) (anti-thyroxine [7]; 600 s after antibody): 398 mP
V + H (anti-thyroxine [7]; 600 s after antibody): 3320
V − H (anti-thyroxine [7]; 600 s after antibody): 1340
P (mP) (anti-thyroxine [7]; before antibody, time 0 s): 75 mP
V + H (anti-thyroxine [7]; before antibody, time 0 s): 2291
V − H (anti-thyroxine [7]; before antibody, time 0 s): 178

O=C([O-])C(Cl)Cl.[Na+] [sodium dichloroacetate]
rate of the antibody reaction (anti-thyroxine [6]; [10]): substantially slowed

N[C@@H](Cc1cc(I)c(Oc2cc(I)c(O)c(I)c2)c(I)c1)C(=O)O [thyroxine]
competitive inhibition of the binding of F-thyroxine to its specific antibody [8]: inhibition of the binding of F-thyroxine to its specific antibody by unlabeled thyroxine occurred

O=C1CCC(=O)N1O [N-hydroxysuccinimide]
rate of the antibody reaction (anti-thyroxine [6]; [11]): substantially slowed

O=C([O-])c1ccccc1O.[Na+] [sodium salicylate]
rate of the antibody reaction (anti-thyroxine [6]; [11]): substantially slowed
